According to US20220257698A1, “ANGIOTENSIN TYPE 2 (AT2) RECEPTOR AGONISTS FOR USE IN THE TREATMENT OF CANCER” (LANTHIOPEP B.V., priority 2019, published 2022):

Tested on: MaCa4151 breast cancer PDX model
Experiment: KcAng(1-7) on growth of breast carcinoma PDX MaCa4151 in mice
Format: in vivo, NMRI nu/nu mice (human PDX)
Description: In vivo studies were conducted at EPO GmbH Berlin. Large studies (FIG. 1A, 2, 3, 4, 5) comprised 3 groups of 10 mice/group and 5 animals as reserve, as outlined in Table 1. Smaller studies (FIG. 1B, 1C, 1D) comprised 2 groups of mice of 3 mice per group. The animals were allocated to the various treatment groups (e.g. 0.2 μg/kg and 30 μg/kg) with a maximum of 10 animals per group. […] The groups received subcutaneous (s.c.) drug injection (for max. 28 days) as outlined in the Table 1.
NMRI nu/nu mice were used in this study. The animals were female at age of 6 to 8 weeks. The respective PDX tumors were inoculated subcutaneously (s.c.), and the tumors were grown to achieve palpable tumor sizes before start of the respective treatments. The PDX included breast (MaCa4151), colon (Co9689A), head & neck (HN10309), lung (Lu7433) and ovarian (OvCa13329) cancer (Table 2).
Treatment with KcAng(1-7) was started with palpable tumors after the randomization of animals regarding tumor volume. KcAng(1-7) was applied s.c. by daily injections at […] or 30 μg/kg dose for a maximum of 28 days (or earlier as defined by the humane end point for the study).
KcAng(1-7) was prepared as follows: The compounds was suspended in sterile PBS resulting in a clear solution. The remains of this formulation were stored at 4° C.
Tumor growth stimulatory or inhibitory activity of the KcAng(1-7) was evaluated by determination of tumor volumes (TV). During the study, tumor volumes and body weight were measured twice a week, and the ratio of the mean tumor volumes between the compound-treated group and the vehicle-treated group (T/C) was calculated.
Tumor volume=(tumor width)×(tumor width)×(tumor length)+2
T/C=T÷C • T: Mean estimated tumor volume of the compound-treated group • C: Mean estimated tumor volume of the vehicle-treated group

[1] = Gr. B 0.2 μg/kg/d s.c., Day 21 (Meas. 1)
[2] = Gr. B 0.2 μg/kg/d s.c., Day 23 (Meas. 2)
[3] = Gr. B 0.2 μg/kg/d s.c., Day 26 (Meas. 3)
[4] = Gr. B 0.2 μg/kg/d s.c., Day 29 (Meas. 4)
[5] = Gr. B 0.2 μg/kg/d s.c., Day 34 (Meas. 5)
[6] = Gr. B 0.2 μg/kg/d s.c., Day 37 (Meas. 6)
[7] = Gr. C 30 μg/kg/d s.c., Day 21 (Meas. 1)
[8] = Gr. C 30 μg/kg/d s.c., Day 23 (Meas. 2)
[9] = Gr. C 30 μg/kg/d s.c., Day 26 (Meas. 3)
[10] = Gr. C 30 μg/kg/d s.c., Day 29 (Meas. 4)
[11] = Gr. C 30 μg/kg/d s.c., Day 34 (Meas. 5)
[12] = Gr. C 30 μg/kg/d s.c., Day 37 (Meas. 6)

Lys-Asp-Arg-Val-Abu/Ala-Ile-His-Abu/Ala (KDRVAIHA; not fully specified; cyclic thioether (Abu/Ala bridge); VARIANT (5)..(5) /replace=“Abu”; VARIANT (8)..(8) /replace=“Abu”; SITE (1)..(8) /note=“Variant residues given in the sequence have no preference with respect to those in the annotations for variant positions”) [KcAng(1-7)]
effect on tumor growth (0.2 and 30 μg/kg, 17 days): did not resulted in an increase of tumor growth or reduced tumor growth
RTV Mean [1]: 1
RTV Median [1]: 1
T/C [1]: 95.7%
Tumor Vol. Mean [1]: 0.163 cm^3
Tumor Vol. Median [1]: 0.131 cm^3
RTV Mean [2]: 1.7
RTV Median [2]: 1.6
T/C [2]: 105.2%
Tumor Vol. Mean [2]: 0.281 cm^3
Tumor Vol. Median [2]: 0.241 cm^3
RTV Mean [3]: 2.4
RTV Median [3]: 2.2
T/C [3]: 118.4%
Tumor Vol. Mean [3]: 0.392 cm^3
Tumor Vol. Median [3]: 0.368 cm^3
RTV Mean [4]: 3.4
RTV Median [4]: 3.2
T/C [4]: 104.9%
Tumor Vol. Mean [4]: 0.55 cm^3
Tumor Vol. Median [4]: 0.491 cm^3
RTV Mean [5]: 6.2
RTV Median [5]: 5.2
T/C [5]: 120.2%
Tumor Vol. Mean [5]: 0.995 cm^3
Tumor Vol. Median [5]: 1.021 cm^3
RTV Mean [6]: 10.5
RTV Median [6]: 7.6
T/C [6]: 137%
Tumor Vol. Mean [6]: 1.607 cm^3
Tumor Vol. Median [6]: 1.452 cm^3
RTV Mean [7]: 1
RTV Median [7]: 1
T/C [7]: 94.8%
Tumor Vol. Mean [7]: 0.162 cm^3
Tumor Vol. Median [7]: 0.157 cm^3
RTV Mean [8]: 1.5
RTV Median [8]: 1.5
T/C [8]: 92.6%
Tumor Vol. Mean [8]: 0.248 cm^3
Tumor Vol. Median [8]: 0.165 cm^3
RTV Mean [9]: 2.4
RTV Median [9]: 2.5
T/C [9]: 122.3%
Tumor Vol. Mean [9]: 0.405 cm^3
Tumor Vol. Median [9]: 0.383 cm^3
RTV Mean [10]: 4
RTV Median [10]: 4
T/C [10]: 125%
Tumor Vol. Mean [10]: 0.655 cm^3
Tumor Vol. Median [10]: 0.671 cm^3
RTV Mean [11]: 6.8
RTV Median [11]: 6.5
T/C [11]: 130.6%
Tumor Vol. Mean [11]: 1.081 cm^3
Tumor Vol. Median [11]: 1.072 cm^3
RTV Mean [12]: 9.8
RTV Median [12]: 9.1
T/C [12]: 131.2%
Tumor Vol. Mean [12]: 1.539 cm^3
Tumor Vol. Median [12]: 1.522 cm^3
